Data taken from US8802597B2, “Herbicidal pyrimidines” (E I du Pont de Nemours and Company, priority 2003, dated 2014).
Like-named read-outs stand apart in the source and are kept apart here.

Assays:
Assay in all cases: Test C pre/postemergence
Type in all cases: in vivo
[1] = system: Surinam grass (Brachiaria decumbens); settings: Urochloa decumbens; for pest or weed control at 125 g/ha: 125 g ai/ha; for pest or weed control at 500 g/ha: 500 g ai/ha; for pest or weed control at 250 g/ha: 250 g ai/ha
Outline: (§1)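 Applications: preemergence onto seeded soil and postemergence onto 1- to 4-leaf seedlings, compound carried in non-phytotoxic solvent plus surfactant. Kept in greenhouse 12 to 14 days. Scored visually relative to untreated controls, 0 (no effect) to 100 (complete control).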

[2] = system: common (oilseed) sunflower (Helianthus annuus); settings: Helianthus annuus, pre-emergence, Preemergence, read-out: Plant response rating, Sunflower
Outline: as §1

[3] = system: common ragweed (Ambrosia elatior); settings: Ambrosia artemisiifolia; for pest or weed control at 62 g/ha: 62 g ai/ha; for pest or weed control at 125 g/ha: 125 g ai/ha; for pest or weed control at 250 g/ha: 250 g ai/ha; for pest or weed control at 500 g/ha: 500 g ai/ha
Outline: as §1

[4] = system: giant foxtail (Setaria faberii); settings: Setaria faberi; for pest or weed control at 125 g/ha: 125 g ai/ha; for pest or weed control at 500 g/ha: 500 g ai/ha; for pest or weed control at 62 g/ha: 62 g ai/ha; for pest or weed control at 250 g/ha: 250 g ai/ha
Outline: as §1

[5] = system: johnsongrass (Sorghum halepense); settings: Sorghum halepense; for pest or weed control at 62 g/ha: 62 g ai/ha; for pest or weed control at 125 g/ha: 125 g ai/ha; for pest or weed control at 250 g/ha: 250 g ai/ha; for pest or weed control at 500 g/ha: 500 g ai/ha
Outline: as §1

kochia (Kochia scoparia) = settings: Bassia scoparia, post-emergence, Postemergence
Outline: as §1

[6] = system: morningglory (Ipomoea coccinea); settings: Ipomoea, post-emergence, Postemergence, scale 0 to 100 (0 no effect, 100 complete control), read-out: Morningglory plant response rating
Outline: as §1

[7] = post-emergence, Postemergence, scale 0 to 100, read-out: Plant response rating, Surinam Grass
[8] = pre-emergence, Preemergence, scale 0 to 100, read-out: Plant response rating, Surinam Grass
[9] = post-emergence, Postemergence, scale 0 to 100 (0 no effect, 100 complete control), read-out: Ragweed plant response rating
[10] = post-emergence, Postemergence, scale 0 to 100, read-out: Plant response rating, Ragweed
[11] = pre-emergence, Preemergence, scale 0 to 100, read-out: Plant response rating, Ragweed
[12] = post-emergence, Postemergence, scale 0 to 100 (0 no effect, 100 complete control), read-out: Foxtail, Giant plant response rating
[13] = post-emergence, Postemergence, scale 0 to 100, read-out: Plant response rating, Foxtail, Giant
[14] = pre-emergence, Preemergence, scale 0 to 100, read-out: Plant response rating, Foxtail, Giant
[15] = post-emergence, Postemergence, scale 0 to 100 (0 no effect, 100 complete control), read-out: Johnsongrass plant response rating
[16] = post-emergence, Postemergence, scale 0 to 100, read-out: Plant response rating, Johnsongrass
[17] = pre-emergence, Preemergence, scale 0 to 100, read-out: Plant response rating, Johnsongrass

Question: For `Nc1nc(C2CC2)nc(C(=O)OCc2ccccc2)c1Br` [Compound 22, phenylmethyl 6-amino-5-bromo-2-cyclopropyl-4-pyrimidinecarboxylate], which pest or weed control at 125 g/ha ([1]; post-emergence, Postemergence, scale 0 to 100 (0 no effect, 100 complete control), read-out: Surinam Grass plant response rating) is on record?
Answer: 60%

Question: And the pest or weed control at 500 g/ha [1, 7]?
Answer: 85%

Question: And the pest or weed control at 62 g/ha ([1]; post-emergence, Postemergence, 62 g ai/ha, scale 0 to 100 (0 no effect, 100 complete control), read-out: Surinam Grass plant response rating)?
Answer: 55%

Question: And the pest or weed control at 250 g/ha [1, 7]?
Answer: 85%

Question: And the pest or weed control at 125 g/ha [1, 8]?
Answer: 90%

Question: What about the pest or weed control at 250 g/ha [1, 8] of the same compound?
Answer: 100%

Question: What about the pest or weed control at 500 g/ha [1, 8] of the same compound?
Answer: 100%

Question: And the pest or weed control at 62 g/ha ([2]; 62 g ai/ha, scale 0 to 100, 0 no effect, 100 complete control)?
Answer: 90%

Question: What about the pest or weed control at 125 g/ha ([2]; 125 g ai/ha, scale 0 to 100) of the same compound?
Answer: 95%

Question: And the pest or weed control at 250 g/ha ([2]; 250 g ai/ha, scale 0 to 100)?
Answer: 100%

Question: What about the pest or weed control at 500 g/ha ([2]; 500 g ai/ha, scale 0 to 100) of the same compound?
Answer: 100%

Question: What about the pest or weed control at 62 g/ha [3, 9] of the same compound?
Answer: 80%

Question: And the pest or weed control at 125 g/ha [3, 9]?
Answer: 85%

Question: What about the pest or weed control at 250 g/ha [3, 10] of the same compound?
Answer: 90%

Question: And the pest or weed control at 500 g/ha [3, 10]?
Answer: 90%

Question: And the pest or weed control at 62 g/ha ([3]; pre-emergence, Preemergence, scale 0 to 100, 0 no effect, 100 complete control, read-out: Plant response rating, Ragweed)?
Answer: 90%

Question: And the pest or weed control at 125 g/ha [3, 11]?
Answer: 100%

Question: And the pest or weed control at 250 g/ha [3, 11]?
Answer: 100%

Question: And the pest or weed control at 500 g/ha [3, 11]?
Answer: 100%

Question: What about the pest or weed control at 125 g/ha [4, 12] of the same compound?
Answer: 45%

Question: And the pest or weed control at 500 g/ha [4, 13]?
Answer: 60%

Question: What about the pest or weed control at 62 g/ha [4, 12] of the same compound?
Answer: 40%

Question: What about the pest or weed control at 250 g/ha [4, 13] of the same compound?
Answer: 50%

Question: And the pest or weed control at 62 g/ha ([4]; pre-emergence, Preemergence, scale 0 to 100, 0 no effect, 100 complete control, read-out: Plant response rating, Foxtail, Giant)?
Answer: 10%

Question: What about the pest or weed control at 125 g/ha [4, 14] of the same compound?
Answer: 15%

Question: And the pest or weed control at 250 g/ha [4, 14]?
Answer: 20%

Question: And the pest or weed control at 500 g/ha [4, 14]?
Answer: 60%

Question: What about the pest or weed control at 62 g/ha [5, 15] of the same compound?
Answer: 40%

Question: And the pest or weed control at 125 g/ha [5, 15]?
Answer: 80%

Question: And the pest or weed control at 250 g/ha [5, 16]?
Answer: 80%

Question: And the pest or weed control at 500 g/ha [5, 16]?
Answer: 100%

Question: What about the pest or weed control at 62 g/ha ([5]; pre-emergence, Preemergence, scale 0 to 100, 0 no effect, 100 complete control, read-out: Plant response rating, Johnsongrass) of the same compound?
Answer: 80%

Question: And the pest or weed control at 125 g/ha [5, 17]?
Answer: 100%

Question: And the pest or weed control at 250 g/ha [5, 17]?
Answer: 100%

Question: And the pest or weed control at 500 g/ha [5, 17]?
Answer: 100%

Question: And the pest or weed control at 62 g/ha (kochia (Kochia scoparia); 62 g ai/ha, scale 0 to 100 (0 no effect, 100 complete control), read-out: Kochia plant response rating)?
Answer: 95%

Question: And the pest or weed control at 125 g/ha (kochia (Kochia scoparia); 125 g ai/ha, scale 0 to 100 (0 no effect, 100 complete control), read-out: Kochia plant response rating)?
Answer: 100%

Question: And the pest or weed control at 250 g/ha (kochia (Kochia scoparia); 250 g ai/ha, scale 0 to 100, read-out: Plant response rating, Kochia)?
Answer: 100%

Question: What about the pest or weed control at 500 g/ha (kochia (Kochia scoparia); 500 g ai/ha, scale 0 to 100, read-out: Plant response rating, Kochia) of the same compound?
Answer: 100%

Question: And the pest or weed control at 62 g/ha ([6]; 62 g ai/ha)?
Answer: 90%

Question: And the pest or weed control at 125 g/ha ([6]; 125 g ai/ha)?
Answer: 90%
